Measured values published in patent publication US9518064B2, “Imidazothiadiazole and imidazopyridazine derivatives as protease activated receptor 4 (PAR4) inhibitors for treating platelet aggregation” (BRISTOL-MYERS SQUIBB COMPANY, priority 2012, dated 2016).
Where no end group is shown, it is not given here.

Assays:
PAR4 [1] = target: T1, PAR4 (Homo sapiens (Human), UniProt Q96RI0); test: FLIPR assay in PAR4-expressing HEK293 cells (calcium mobilization); type: cell-based; settings: PAR4 antagonist activity, FLIPR assay as described in Example A
PAR4 [2] = target: T1, PAR4; test: Gamma thrombin induced platelet aggregation assay (PRP assay); type: cell-based; settings: γ-thrombin induced platelet aggregation in PRP
human PRP = test: Tissue factor-induced platelet aggregation assay; type: cell-based; settings: FIGS. 1 and 2
Source text: Example E is a tissue factor-induced platelet aggregation assay. The conditions in this assay mimic the physiological events during thrombus formation. In this assay, platelet aggregation in human PRP was initiated by the addition of tissue factor and CaCl2. Tissue factor, the initiator of the extrinsic coagulation cascade, is highly elevated in human atherosclerotic plaque. Exposure of blood to tissue factor at the atherosclerotic site triggers a robust generation of thrombin and induces the formation of obstructive thrombi.
The ability of PAR1 or PAR4 antagonists to inhibit platelet aggregation induced by endogenous thrombin can be tested in a tissue factor driven aggregation assay. Aggregation is initiated by addition of CaCl2 and recombinant human tissue factor, which results in the generation of thrombin through activation of the coagulation pathway in the plasma. Anticoagulant agents such as corn trypsin inhibitor (Haematologic Technologies, Essex Junction, Vt.) at 50 μg/ml and PEFABLOC® FG (Centerchem, Norwalk, Conn.) are also added to the sample to prevent fibrin clot formation during the time of the study. Platelet aggregation is monitored using standard instrumentation including optical aggregometer or impedance aggregometer.

PAR1 = PAR1 (Homo sapiens (Human), UniProt P25116); test: FLIPR PAR1 counter screen (SFFLRR-induced calcium mobilization) in HEK293 cells; type: cell-based; settings: Example A, routinely tested; read-out: EC50 of agonist peptide in the assay (PAR1 counter screen)
[3] = ACS patients; cited from earlier work

T1 sequence (Q96RI0 18-385): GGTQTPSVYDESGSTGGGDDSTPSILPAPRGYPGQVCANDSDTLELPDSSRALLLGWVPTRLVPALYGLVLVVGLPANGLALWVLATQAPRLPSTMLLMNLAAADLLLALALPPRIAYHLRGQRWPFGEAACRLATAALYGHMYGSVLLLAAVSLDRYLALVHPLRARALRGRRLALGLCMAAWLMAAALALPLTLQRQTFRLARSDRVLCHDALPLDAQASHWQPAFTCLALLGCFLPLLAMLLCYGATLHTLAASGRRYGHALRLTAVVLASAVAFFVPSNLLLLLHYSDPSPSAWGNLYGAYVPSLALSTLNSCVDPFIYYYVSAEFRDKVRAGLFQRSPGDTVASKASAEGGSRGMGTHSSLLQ
Chain of PAR1 (P25116 22-425): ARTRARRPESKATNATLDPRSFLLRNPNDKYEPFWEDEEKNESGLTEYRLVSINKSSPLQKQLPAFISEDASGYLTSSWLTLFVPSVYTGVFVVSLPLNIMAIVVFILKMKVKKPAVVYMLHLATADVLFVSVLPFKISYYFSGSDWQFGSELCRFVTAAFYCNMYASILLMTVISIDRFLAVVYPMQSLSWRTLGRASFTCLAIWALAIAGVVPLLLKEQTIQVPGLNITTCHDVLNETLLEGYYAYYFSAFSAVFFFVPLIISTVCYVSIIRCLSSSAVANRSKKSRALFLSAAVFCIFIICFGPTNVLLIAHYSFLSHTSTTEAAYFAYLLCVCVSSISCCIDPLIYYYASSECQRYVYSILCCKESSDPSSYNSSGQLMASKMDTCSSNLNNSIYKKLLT

Compound	IC50 (PAR4 [1]) [nM]	IC50 (PAR4 [2]) [nM]	also measured
COc1cc(OCc2cccc(-c3ccc(F)c(C)n3)c2)c2cc(-c3cn4nc(OC)sc4n3)oc2c1 [Example 32]	0.57	2770	–
COc1cc(OCc2cccc(C3=CCOCC3)c2)c2cc(-c3cn4nc(OC)sc4n3)oc2c1 [Example 93]	0.71	105	–
trans-cinnamoyl-Phe(4-F)-Phe(4-guanidino)-Leu-Arg-Arg-NH2 [reference compound]	–	–	inhibition of tissue factor-induced platelet aggregation (human PRP): effective inhibition
COc1cc(OCc2cccc(-c3cncnc3)c2)c2cc(-c3cn4nc([C@H](C)F)sc4n3)oc2c1 [Example 64, (S)-2-(1-Fluoroethyl)-6-(6-methoxy-4-((3-(pyrimidin-5-yl)benzyl)oxy)benzofuran-2-yl)imidazo[2,1-b][1,3,4]thiadiazole]	–	490	–
COc1cc(OCc2ccnc(-c3ccnc(F)c3)n2)c2cc(-c3cn4nc(OC)sc4n3)oc2c1 [Example 97, 6-(4-((2-(2-Fluoropyridin-4-yl)pyrimidin-4-yl)methoxy)-6-methoxybenzofuran-2-yl)-2-methoxyimidazo[2,1-b][1,3,4]thiadiazole]	0.36	2.97	–
COc1cc(OCc2cccc(-c3ccc4c(c3)OCCO4)c2)c2cc(-c3cn4nc(OC)sc4n3)oc2c1 [Example 31]	–	49.9	–
COc1cc(COc2cc(OC)cc3oc(-c4cn5nc(OC)sc5n4)cc23)cc(-c2cnc(OC)nc2)c1 [Example 71]	0.5	3.61	–
COc1cc(OCc2cccc(-c3cccnc3C#N)c2)c2cc(-c3cn4nc(OC)sc4n3)oc2c1 [Example 26]	–	970	–
COc1cc(OCc2cccc(-c3cncnc3)c2)c2cc(-c3cn4nc(C(C)(F)F)sc4n3)oc2c1 [Example 63, 2-(1,1-Difluoroethyl)-6-(6-methoxy-4-((3-(pyrimidin-5-yl)benzyl)oxy)benzofuran-2-yl)imidazo[2,1-b][1,3,4]thiadiazole]	4.04	2430	–
COc1cc(OCc2cccc(-c3ccc4nccn4c3)c2)c2cc(-c3cn4nc(OC)sc4n3)oc2c1 [Example 23]	–	629	–
SFFLRR [SFFLRR]	–	–	EC50 (PAR1): 600 nM
COc1cc(OCc2cccc(-c3ccc(F)cn3)c2)c2cc(-c3cn4nc([C@H](C)F)sc4n3)oc2c1 [Example 69]	–	13.1	–
COc1cc(OCc2ccnc(-c3ccc(C(=O)N(C)C)cc3)n2)c2cc(-c3cn4nc(OC)sc4n3)oc2c1 [Example 98]	0.29	1.67	–
COc1cc(OCc2cccc(C3(O)CCOCC3)n2)c2cc(-c3cn4nc([C@H](C)F)sc4n3)oc2c1 [Example 110, (S)-4-(6-(((2-(2-(1-Fluoroethyl)imidazo[2,1-b][1,3,4]thiadiazol-6-yl)-6-methoxybenzofuran-4-yl)oxy)methyl)pyridin-2-yl)tetrahydro-2H-pyran-4-ol]	0.41	87.6	–
COc1cc(OCc2cccc(-c3ccc(C#N)c(F)c3)c2)c2cc(-c3cn4nc(OC)sc4n3)oc2c1 [Example 30]	–	125	–
COc1cc(OCc2cccc(-c3ccc([N+](=O)[O-])nc3)c2)c2cc(-c3cn4nc(OC)sc4n3)oc2c1 [Example 28]	–	24.6	–
COc1cc(OCc2cccc(-c3cnsc3)c2)c2cc(-c3cn4nc(OC)sc4n3)oc2c1 [Example 48]	1.03	65.9	–
CCOC(=O)N[C@@H]1CC[C@@H]2[C@@H](C1)C[C@H]1C(=O)O[C@H](C)[C@H]1[C@H]2/C=C/c1ccc(-c2cccc(F)c2)cn1 [vorapaxar]	–	–	reduction of cardiovascular events [3]: did not significantly reduce; risk of major bleeding [3]: significantly increased
COc1cc(OCc2cccc(-c3ccc(N4CCOCC4)nc3)c2)c2cc(-c3cn4nc(OC)sc4n3)oc2c1 [Example 59]	4.81	2670	–
COc1nn2cc(-c3nc4c(OCc5cccc(-c6ccoc6)c5)cccc4o3)nc2s1 [Example 81, 4-((3-(Furan-3-yl)benzyl)oxy)-2-(2-methoxyimidazo[2,1-b][1,3,4]thiadiazol-6-yl)benzo[d]oxazole]	22.1	5000	–
COc1cc(OCc2cccc(-c3cnc(OC)cc3C)c2)c2cc(-c3cn4nc(OC)sc4n3)oc2c1 [Example 51]	1.19	–	–
COc1ccc(-c2nccc(COc3cc(OC)cc4oc(-c5cn6nc(OC)sc6n5)cc34)n2)cc1 [Example 100]	0.76	1.8	–
COc1cc(OCc2cccc(-c3ccc(C(=O)N(C)C)cc3)n2)c2cc(-c3cn4nc(OC)sc4n3)oc2c1 [Example 96, 4-(6-(((6-Methoxy-2-(2-methoxyimidazo[2,1-b][1,3,4]thiadiazol-6-yl)benzofuran-4-yl)oxy)methyl)pyridin-2-yl)-N,N-dimethylbenzamide]	0.23	–	–

Compound	IC50 (PAR4 [1]) [nM]	IC50 (PAR4 [2]) [nM]	also measured
COc1cc(OCc2cccc(-c3ccsc3)c2)c2cc(-c3cn4nc(OC)sc4n3)oc2c1 [Example 9]	1.26	–	–
COc1ncc(-c2cccc(COc3cc(Cl)cc4oc(-c5cn6nc(OC)sc6n5)cc34)c2)cn1 [Example 107, 6-(6-Chloro-4-((3-(2-methoxypyrimidin-5-yl)benzyl)oxy)benzofuran-2-yl)-2-methoxyimidazo[2,1-b][1,3,4]thiadiazole]	1.09	–	–
COc1cc(OCc2cccc(-c3ccc(OC4CCCCO4)cc3)c2)c2cc(-c3cn4nc(OC)sc4n3)oc2c1 (stereo not shown) [Example 88]	1.1	–	–
COc1cc(OCc2cccc(-c3ncc(Cl)cc3Cl)c2)c2cc(-c3cn4nc(OC)sc4n3)oc2c1 [Example 54]	1.47	–	–
COc1cc(OCc2cccc(-c3cnc(OC)nc3)n2)c2cc(-c3cn4nc(OC)sc4n3)oc2c1 [Example 77]	2.18	–	–
COc1cc(OCc2cccc(-c3cc4ccccc4s3)c2)c2cc(-c3cn4nc(OC)sc4n3)oc2c1 [Example 4]	9.35	–	–
COc1ccc(COC(C)c2ccc(-c3cccc(COc4cc(OC)cc5oc(-c6cn7nc(OC)sc7n6)cc45)c3)nc2)cc1 (stereo not shown) [Example 61]	1	–	–
COc1cnc(-c2cccc(COc3cc(Cl)cc4oc(-c5cn6nc(OC)sc6n5)cc34)c2)cn1 [Example 108, 6-(6-Chloro-4-((3-(5-methoxypyrazin-2-yl)benzyl)oxy)benzofuran-2-yl)-2-methoxyimidazo[2,1-b][1,3,4]thiadiazole]	1.43	–	–
COc1cc(OCc2cncc(-c3ccc(Cl)nc3)c2)c2cc(-c3cn4nc(OC)sc4n3)oc2c1 [Example 74]	1.57	–	–
COc1cc(OCc2cccc(-c3cccnc3F)c2)c2cc(-c3cn4nc(OC)sc4n3)oc2c1 [Example 45]	1.03	–	–
COc1cc(OCc2cccc(-c3cccnc3)c2)c2cc(-c3cn4nc(OC)sc4n3)oc2c1 [Example 15]	6.4	–	–
COc1cc(OCc2ccnc(C3(c4ccccc4)CC3)n2)c2cc(-c3cn4nc(OC)sc4n3)oc2c1 [Example 105]	1.06	–	–
COc1cc(OCc2cccc(-c3ncc(Cl)cc3C)c2)c2cc(-c3cn4nc(OC)sc4n3)oc2c1 [Example 52]	0.56	–	–
COc1cc(OCc2cccc(-c3ccc(F)cc3F)c2)c2cc(-c3cn4nc(OC)sc4n3)oc2c1 [Example 17]	3.78	–	–
COc1cc(OCc2cccc(-c3ccc(F)nc3)c2)c2cc(-c3cn4nc(C(C)(F)F)sc4n3)oc2c1 [Example 68]	3.37	2230	–
COc1cc(OCc2cccc(-c3ccc4c(c3)OCO4)c2)c2cc(-c3cn4nc(OC)sc4n3)oc2c1 [Example 18]	3.5	68.2	–
COc1cc(OCc2cccc(-c3ccc(F)nc3)c2)c2cc(-c3cn4nc(OC)sc4n3)oc2c1 [Example 7]	1.29	–	–
COc1cc(OCc2cccc(-c3ccc(O)cn3)c2)c2cc(-c3cn4nc(OC)sc4n3)oc2c1 [Example 91]	9.05	–	–
COc1cc(OCc2cc(F)cc(-c3cnc(OC)nc3)c2)c2cc(-c3cn4nc(OC)sc4n3)oc2c1 [Example 83, 6-(4-((3-Fluoro-5-(2-methoxypyrimidin-5-yl)benzyl)oxy)-6-methoxybenzofuran-2-yl)-2-methoxyimidazo[2,1-b][1,3,4]thiadiazole]	0.39	–	–
COc1cc(OCc2cccc(-c3ccc(F)cn3)c2)c2cc(-c3cn4nc(C(C)(F)F)sc4n3)oc2c1 [Example 67]	4.54	–	–
COc1cc(OCc2cccc(-c3ccc(C(=O)OC(C)(C)C)nc3)c2)c2cc(-c3cn4nc(OC)sc4n3)oc2c1 [Example 60]	4.18	81.3	–
COc1cc(OCc2cccc(C3(OC)CCOCC3)n2)c2cc(-c3cn4nc(OC)sc4n3)oc2c1 [Example 111, 2-Methoxy-6-(6-methoxy-4-((6-(4-methoxytetrahydro-2H-pyran-4-yl)pyridin-2-yl)methoxy)benzofuran-2-yl)imidazo[2,1-b][1,3,4]thiadiazole]	0.23	–	–
COc1cc(OCc2cccc(C3(F)CCOCC3)n2)c2cc(-c3cn4nc([C@H](C)F)sc4n3)oc2c1 [Example 114, (S)-2-(1-Fluoroethyl)-6-(4-((6-(4-fluorotetrahydro-2H-pyran-4-yl)pyridin-2-yl)methoxy)-6-methoxybenzo-furan-2-yl)imidazo[2,1-b][1,3,4]thiadiazole]	0.31	–	–
